# Source: patent US20030125235A1, “Treatment of diseases associated with cytokine production with inhibitors of the tec family of protein tyrosine kinases” (priority 2000, published 2003)
# Key:
# Lyn, Syk or MAP kinases = settings: Kawakami et al. 1999; cited from earlier work
# Btk = Btk (Homo sapiens, UniProt Q06187); settings: literature (Kawakami et al. 1999; Mahajan et al. 1999); cited from earlier work
# TNF production = settings: cited from earlier work; for LPS-induced TNF production: Geng et al. 1993
# [1] = tested on: RAW 264.7 murine macrophages; test: LPS-induced TNF-α production in RAW 264.7 murine macrophages (ELISA); format: cell-based
# Experimental: The murine macrophage cell line, Raw 264.7 were maintained in DMEM medium supplemented with 100 units/ml penicillin/streptomycin and 5% heat-inactivated fetal calf serum at 37° C. in a humidified atmosphere containing 5% CO2.
# (§1) Supernatants from experiments using either human macrophages, rheumatoid synovial cells or PBMCs were analyzed for TNF-α ot IL-1 by enzyme-linked immunosorbent assay (ELISA). The ELISA for hTNF-α was performed as described by Engelberts et al. (1991) Lymphokine Cytokine Res. 10, 60-76.
# This compound was investigated for its effects on TNF-α production. […] Supernatants were then harvested and assayed for TNF-α by ELISA as described in the Methods section.
# human monocytes = settings: Stefanova et al. 1993; cited from earlier work
# [2] = tested on: RA synovial membrane cultures; test: Spontaneous TNF production in rheumatoid arthritis synovial membrane cultures (ELISA); format: cell-based, human; settings: overnight culture; FIG. 10
# Experimental: Synovium from rheumatoid patients undergoing joint replacement surgery was dissociated by cutting into small pieces, digested with collagenase and DNase (Buchan et al., 1988). The total cell mixture consisting predominantly of T cells and macrophages were cultured at a density of 1×10^6 cells/ml in RPMI containing 100 units/ml penicillin/streptomycin and 5% heat-inactivated fetal calf serum.
# as §1
# RA synovial cultures were treated with herbimycin at the given concentrations. Following overnight culture the supernatants were harvested and TNF expression measured by ELISA.
# Chain of Btk (Q06187 whole entry, species assumed): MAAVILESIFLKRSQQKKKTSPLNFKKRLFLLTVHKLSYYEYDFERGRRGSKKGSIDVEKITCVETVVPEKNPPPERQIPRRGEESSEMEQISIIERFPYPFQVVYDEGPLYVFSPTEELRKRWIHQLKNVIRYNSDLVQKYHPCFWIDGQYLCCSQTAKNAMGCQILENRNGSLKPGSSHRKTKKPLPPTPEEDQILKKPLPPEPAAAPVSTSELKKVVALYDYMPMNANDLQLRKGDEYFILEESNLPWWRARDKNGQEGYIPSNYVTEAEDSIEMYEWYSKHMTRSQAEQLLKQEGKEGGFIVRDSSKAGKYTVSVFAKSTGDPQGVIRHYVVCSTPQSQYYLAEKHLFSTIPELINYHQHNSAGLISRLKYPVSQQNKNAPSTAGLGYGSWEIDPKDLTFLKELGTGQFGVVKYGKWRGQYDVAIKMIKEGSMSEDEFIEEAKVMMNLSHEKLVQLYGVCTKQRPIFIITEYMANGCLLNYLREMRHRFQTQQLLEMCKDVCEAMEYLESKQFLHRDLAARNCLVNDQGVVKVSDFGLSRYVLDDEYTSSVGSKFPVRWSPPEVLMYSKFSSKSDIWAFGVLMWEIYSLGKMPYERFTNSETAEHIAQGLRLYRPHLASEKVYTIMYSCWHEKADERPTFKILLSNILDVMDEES
smiles,measurement,setting,value
CC1=C(O)C(=O)[C@@H]2O[C@@H]2C1=O [Terreic acid],"effect on activity of Lyn, Syk or MAP kinases","Lyn, Syk or MAP kinases",without affecting the activity
same,inhibition of Btk,Btk,inhibit Btk
N#CC(C#N)=Cc1ccc([N+](=O)[O-])c(O)c1 [tyrophostin AG126],TNF production,TNF production; Novogradsky et al. 1994,block
C/C(O)=C(\C#N)C(=O)Nc1cc(Br)ccc1Br [LFM-A13],inhibition of LPS-induced TNF-α expression,"[1]; 200 μM, 1 h pretreatment, LPS 10 ng/ml for 4 h, FIG. 3",44%
same,toxicity limiting the usable concentration,[1]; above 200 μM,toxicity
same,block of LPS-induced TNF-α expression (concentration dependence),"[1]; various concentrations, 1 h pretreatment, LPS 10 ng/ml for 4 h, FIG. 3",dose-dependent manner
CO[C@H]1[C@@H](OC)C[C@H](C)[C@@H](OC)C2=CC(=O)C=C(NC(=O)/C(C)=C/C=C\[C@H](OC)[C@@H](OC(N)=O)/C(C)=C/[C@@H]1C)C2=O [herbimycin],LPS-induced production of TNF-α and IL-1,human monocytes,completely blocks
same,LPS-induced TNF production,TNF production,block
same,inhibition of spontaneous TNF production,[2],potent inhibitor
O=c1c(-c2ccc(O)cc2)coc2cc(O)cc(O)c12 [genistein],LPS-induced TNF production,TNF production,block
